This assay deals with human monocyte-derived dendritic cells (MDDCs). In words: Cytokine (TNF) production in human MDDCs, ELISA. The following applies: LPS 100 ng/ml, 3 hours. The class given is cell-based. The method, then:
Human blood samples were collected from healthy donors at the Blood Donor Center at Massachusetts General Hospital in compliance with all relevant ethical regulations and according to protocol 2018P001504 approved by the Mass General Brigham Institutional Review Board. Donors provided informed written consent. Human PBMCs were isolated by density gradient separation using Ficoll-Paque PLUS (VWR- GE Life Sciences, catalog no. 17144002), as previously described ([54]). Isolated PBMCs were incubated overnight in DMEM (10% FBS, 0.2% sodium bicarbonate, 1X Glutamax) at 37°C, 5% CO2. Human monocytes were isolated from an unpurified Buffy Coat using RosetteSep human monocyte enrichment cocktail (StemCell Technologies, 15068) and frozen same day in FBS with 10% DMSO. […]
Frozen human monocytes were thawed and allowed to recover overnight in DMEM [10% FBS, 1% p/s, IL-4 (50 ng/ml; Peprotech, 200-04), and GM-CSF (50 ng/ml; Peprotech, 300-03)] at 37°C and 5% CO2. […] Supernatants were collected and TNF production was measured by ELISA (Invitrogen, 88-7346-88). Plates were read on BMG Labtech PHERAstar FSX. […]
For orientation: ELISA stands for enzyme-linked immunosorbent assay.

Consider `Cc1ccc(NC(=O)c2cnn3c(O)cc(-c4ccc(COC(C)C)cc4)nc23)nc1` [BRD5075, O=C(NC1=NC=C(C)C=C1)C2=C3N(N=C2)C(O)=CC(C4=CC=C(COC(C)C)C=C4)=N3], for which the TNF secretion result was “did not reach statistical significance” (5 μM) and “further TNF suppression” (20 μM).
